# Measurements taken from BindingDB's records for doi:10.1016/s0960-894x(99)00488-6 (Smithkline Beecham Pharmaceuticals, 1999).
# Molecular target: Tyrosine--tRNA ligase (Staphylococcus aureus)
# Test: Compound was tested for inhibition of Staphylococcus aureus tyrosyl tRNA Synthetase
row,Compound,IC50
1,"N[C@@H](Cc1ccc(O)cc1)C(=O)N[C@H](C(=O)O)c1ccc(O)c(O)c1 [(S)-[(S)-2-Amino-3-(4-hydroxy-phenyl)-propionylamino]-(3,4-dihydroxy-phenyl)-acetic acid]",11 µM
2,N[C@@H](Cc1ccc(O)cc1)C(=O)N[C@H](C(=O)O)c1ccccc1 [(S)-[(S)-2-Amino-3-(4-hydroxy-phenyl)-propionylamino]-phenyl-acetic acid],0.9 µM
3,N[C@@H](Cc1ccc(O)cc1)C(=O)NC(C(=O)O)c1ccccc1F (stereo partly drawn) [[(S)-2-Amino-3-(4-hydroxy-phenyl)-propionylamino]-(2-fluoro-phenyl)-acetic acid],7.8 µM
4,COC(=O)C(NC(=O)[C@@H](N)Cc1ccc(O)cc1)c1ccccc1O (stereo partly drawn) [[(S)-2-Amino-3-(4-hydroxy-phenyl)-propionylamino]-(2-hydroxy-phenyl)-acetic acid methyl ester],1.2 µM
5,N[C@@H](Cc1ccc(O)cc1)C(=O)NC(C(=O)O)c1ccccc1O (stereo partly drawn) [[(S)-2-Amino-3-(4-hydroxy-phenyl)-propionylamino]-(2-hydroxy-phenyl)-acetic acid],0.8 µM
6,N[C@@H](Cc1ccc(O)cc1)C(=O)NC(C(=O)O)c1cccc(O)c1 (stereo partly drawn) [[(S)-2-Amino-3-(4-hydroxy-phenyl)-propionylamino]-(3-hydroxy-phenyl)-acetic acid],3.4 µM
